# Literature values as cited in Sander's compilation of Henry's law constants (doi:10.1093/bja/45.3.282).
# Experiment: Henry solubility constant Hcp at 310 K (mol/(m3 Pa))
# Conditions: reference: Steward et al. (1973); cited value
row,SMILES,Henry solubility constant Hcp at 310 K
1,"FC(F)OC(F)(F)C(F)Cl (centres undefined) [2-chloro-1,1,2-trifluoroethyl difluoromethyl ether]",0.0003
2,CCCl [chloroethane],0.00047
3,C1CC1 [cyclopropane],8.1e-05
4,CCOCC [diethyl ether],0.005
5,[N-]=[N+]=O [dinitrogen monoxide],0.00018
6,C=COC=C [divinyl ether],0.00054
7,[Kr] [krypton],2e-05
8,ClC=C(Cl)Cl [trichloroethene],0.00066
9,[Xe] [xenon],3.3e-05

# Next, values leading:
row,Henry solubility constant Hcp at 310 K,SMILES
1,0.00031,"FC(F)(F)C(Cl)Br (centres undefined) [1-bromo-1-chloro-2,2,2-trifluoroethane]"
2,0.00024,"FC(F)OC(Cl)C(F)(F)F (centres undefined) [1-chloro-2,2,2-trifluoroethyl difluoromethyl ether]"
3,0.0017,"COC(F)(F)C(Cl)Cl [2,2-dichloro-1,1-difluoro-1-methoxyethane]"
4,0.00033,"C=COCC(F)(F)F [(2,2,2-trifluoroethoxy)-ethene]"
5,3.5e-05,C=C [ethene]
